According to patent publication US8193191B2, “Urotensin II receptor antagonists” (Janssen Pharmaceutica N.V., priority 2006, dated 2012):

Key:
[1] = target: T1, rat GPR14 (U-II receptor) (Rattus norvegicus, UniProt P49684); experiment: Rat UII Calcium Mobilization FLIPR Assay; type: cell-based; conditions: average value for the compound tested; read-out: Rat UII FLIPR Average IC50
T1 construct: expressed in transfected cells
T1 sequence (P49684 1-386): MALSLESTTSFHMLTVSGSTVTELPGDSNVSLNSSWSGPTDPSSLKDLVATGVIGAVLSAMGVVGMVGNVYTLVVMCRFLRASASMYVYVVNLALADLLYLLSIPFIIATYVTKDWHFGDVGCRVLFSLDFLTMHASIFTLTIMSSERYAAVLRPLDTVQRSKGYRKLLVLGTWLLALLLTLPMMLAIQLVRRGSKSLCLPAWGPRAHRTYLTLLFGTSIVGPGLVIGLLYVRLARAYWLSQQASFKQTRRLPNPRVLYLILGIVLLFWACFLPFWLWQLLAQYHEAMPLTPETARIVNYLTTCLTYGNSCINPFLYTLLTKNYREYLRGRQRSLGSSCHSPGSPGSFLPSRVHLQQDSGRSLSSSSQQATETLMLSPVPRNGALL
Method in brief: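 Fluorescent calcium signals were recorded at room temperature (23° C) by FLIPR. Stable rat U-II receptor CHO lines had been dye-loaded for 1 h at 37° C in pH 7.4 HBSS containing 20 mM HEPES, 0.1% BSA and 2.5 mM probenecid.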

[2] = target: T2, endogenous human UII receptor (Homo sapiens, UniProt Q9UKP6); experiment: Human Radioligand Binding Assay ((^125I)-U-II binding to human skeletal muscle myoblasts)
T2 sequence (Q9UKP6 1-389): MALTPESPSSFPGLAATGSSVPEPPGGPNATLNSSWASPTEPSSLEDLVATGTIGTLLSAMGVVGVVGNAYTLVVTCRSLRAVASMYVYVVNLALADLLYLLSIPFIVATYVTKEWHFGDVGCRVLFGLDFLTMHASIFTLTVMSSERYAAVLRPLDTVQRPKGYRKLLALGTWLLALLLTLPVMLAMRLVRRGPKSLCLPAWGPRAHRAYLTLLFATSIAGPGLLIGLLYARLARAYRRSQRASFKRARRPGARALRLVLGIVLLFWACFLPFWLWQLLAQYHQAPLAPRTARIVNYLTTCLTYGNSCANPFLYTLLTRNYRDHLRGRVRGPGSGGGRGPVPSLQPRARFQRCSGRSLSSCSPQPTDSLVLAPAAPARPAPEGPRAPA

[3] = target: T3, Human UII receptor, 6D9 human rhabdomyosarcoma cells (Homo sapiens, UniProt Q9UKP6); experiment: Human UII Calcium Mobilization Assay; type: cell-based; conditions: average value, FLIPR TETRA, read-out: Human UII Ca^+ Mobilization Average IC50
T3 construct: 6D9: isolated by dilution subcloning of RMS13 cells, ATCC® Number: CRL-2061; host or cells: 6D9 human rhabdomyosarcoma cells (subclone of RMS13)
T3 sequence (Q9UKP6 1-389): T2 sequence (Q9UKP6 1-389)
Method in brief: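 FLIPR calcium responses were recorded for 4 minutes after room-temperature addition of test antagonist and U-II, in dye-loaded human 6D9 cells (37° C, 45 min; HBSS/HEPES with probenecid 1.25 mM). Compounds serially diluted in HBSS/HEPES, up to 0.1% DMSO; curves gave IC50 and EC50.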

| IC50 [1] | Ki [2] | IC50 [3] | SMILES |
| --- | --- | --- | --- |
| 0.0094 µM | 0.045 µM | 0.4 µM | COc1ccc([C@@H](CCCNC(=O)C2CCCO2)N2C(=O)c3cccc(N4CCN([C@H](C)c5ccccc5)CC4)c3C2=O)cc1OC (stereo partly drawn) [Cpd 155, (R)-tetrahydro-furan-2-carboxylic acid (4-(3,4-dimethoxy-phenyl)-4-{1,3-dioxo-4-[4-(1R)-(1-phenyl-ethyl)-piperazin-1-yl]-1,3-dihydro-isoindol-2-yl}-butyl)-amide] |
| 0.02 µM | 0.12 µM | 1.3 µM | COc1ccc([C@@H](CCCNC(=O)c2cc(C)[nH]c2C)N2C(=O)c3cccc(N4CCN([C@H](C)c5ccccc5)CC4)c3C2=O)cc1OC [Cpd 188, (R)-2,5-dimethyl-1H-pyrrole-3-carboxylic acid (4-(3,4-dimethoxy-phenyl)-4-{1,3-dioxo-4-[4-(1R)-(1-phenyl-ethyl)-piperazin-1-yl]-1,3-dihydro-isoindol-2-yl}-butyl)-amide] |
| 0.011 µM | 0.066 µM | 0.8 µM | COc1ccc([C@@H](CCCNC(=O)C2CCOC2)N2C(=O)c3cccc(N4CCN([C@H](C)c5ccccc5)CC4)c3C2=O)cc1OC (stereo partly drawn) [Cpd 173, (R)-tetrahydro-furan-3-carboxylic acid (4-(3,4-dimethoxy-phenyl)-4-{1,3-dioxo-4-[4-(1R)-(1-phenyl-ethyl)-piperazin-1-yl]-1,3-dihydro-isoindol-2-yl}-butyl)-amide] |
| 0.026 µM | 0.51 µM | 2.6 µM | COc1ccc([C@@H](CCCNC(C)=N)N2C(=O)c3cccc(N4CCN([C@H](C)c5ccccc5)CC4)c3C2=O)cc1OC [Cpd 166, (R)-N-(4-(3,4-dimethoxy-phenyl)-4-{1,3-dioxo-4-[4-(1R)-(1-phenyl-ethyl)-piperazin-1-yl]-1,3-dihydro-isoindol-2-yl}-butyl)-acetamidine] |
| 0.035 µM | 0.17 µM | 0.43 µM | COc1ccc([C@@H](CCCNC(=O)c2cc(C)c(C)o2)N2C(=O)c3cccc(N4CCN([C@H](C)c5ccccc5)CC4)c3C2=O)cc1OC [Cpd 162, (R)-4,5-dimethyl-furan-2-carboxylic acid (4-(3,4-dimethoxy-phenyl)-4-{1,3-dioxo-4-[4-(1R)-(1-phenyl-ethyl)-piperazin-1-yl]-1,3-dihydro-isoindol-2-yl}-butyl)-amide] |
| 0.2 µM | > 0.3 µM | 1.4 µM | CCOCCC[C@H](c1ccc(OC)c(OC)c1)N1C(=O)c2cccc(N3CCN(CC)CC3)c2C1=O [Cpd 207, (R)-2-[1-(3,4-dimethoxy-phenyl)-4-ethoxy-butyl]-4-(4-ethyl-piperazin-1-yl)-isoindole-1,3-dione] |
| 0.015 µM | 0.095 µM | 0.5 µM | COc1ccc([C@@H](CCCNC(=O)c2cscn2)N2C(=O)c3cccc(N4CCN([C@H](C)c5ccccc5)CC4)c3C2=O)cc1OC [Cpd 163, (R)-thiazole-4-carboxylic acid (4-(3,4-dimethoxy-phenyl)-4-{1,3-dioxo-4-[4-(1R)-(1-phenyl-ethyl)-piperazin-1-yl]-1,3-dihydro-isoindol-2-yl}-butyl)-amide] |
| 0.0088 µM | 0.023 µM | 0.57 µM | CCC(=O)NCCC[C@H](c1ccc(OC)c(OC)c1)N1C(=O)c2cccc(N3CCN([C@H](C)c4ccccc4)CC3)c2C1=O [Cpd 180, (R)-N-(4-(3,4-dimethoxy-phenyl)-4-{1,3-dioxo-4-[4-(1R)-(1-phenyl-ethyl)-piperazin-1-yl]-1,3-dihydro-isoindol-2-yl}-butyl)-propionamide] |
| 0.29 µM | > 0.3 µM | 1.9 µM | CCN1CCN(c2cccc3c2C(=O)N(C(c2cccc(NCc4ccccc4)c2)c2ccc(OC)c(OC)c2)C3=O)CC1 (stereo not drawn) [Cpd 230, 2-[(3-benzylamino-phenyl)-(3,4-dimethoxy-phenyl)-methyl]-4-(4-ethyl-piperazin-1-yl)-isoindole-1,3-dione] |

Continued, compound first:

| SMILES | IC50 [1] | Ki [2] | IC50 [3] |
| --- | --- | --- | --- |
| COc1ccc(C(CCCNS(=O)(=O)c2cn(C)c(C)n2)N2C(=O)c3cccc(N4CCN([C@H](C)c5ccccc5)CC4)c3C2=O)cc1OC (stereo partly drawn) [Cpd 114, 1,2-dimethyl-1H-imidazole-4-sulfonic acid (4-(3,4-dimethoxy-phenyl)-4-{1,3-dioxo-4-[4-(1R)-(1-phenyl-ethyl)-piperazin-1-yl]-1,3-dihydro-isoindol-2-yl}-butyl)-amide] | 0.017 µM | 0.011 µM | 0.47 µM |
| COc1ccc([C@@H](CCCNC(=O)c2ccccn2)N2C(=O)c3cccc(N4CCN([C@H](C)c5ccccc5)CC4)c3C2=O)cc1OC [Cpd 150, (R)-pyridine-2-carboxylic acid (4-(3,4-dimethoxy-phenyl)-4-{1,3-dioxo-4-[4-(1R)-(1-phenyl-ethyl)-piperazin-1-yl]-1,3-dihydro-isoindol-2-yl}-butyl)-amide] | 0.038 µM | 0.074 µM | 0.86 µM |
| COc1ccc(C(CCCNC(=O)c2cccs2)N2C(=O)c3cccc(N4CCN([C@H](C)c5ccccc5)CC4)c3C2=O)cc1OC (stereo partly drawn) [Cpd 104, thiophene-2-carboxylic acid (4-(3,4-dimethoxy-phenyl)-4-{1,3-dioxo-4-[4-(1R)-(1-phenyl-ethyl)-piperazin-1-yl]-1,3-dihydro-isoindol-2-yl}-butyl)-amide] | 0.053 µM | 0.12 µM | 0.17 µM |
| COc1ccc(C(CCCNS(=O)(=O)c2cc(C)oc2C(F)(F)F)N2C(=O)c3cccc(N4CCN([C@H](C)c5ccccc5)CC4)c3C2=O)cc1OC (stereo partly drawn) [Cpd 89, 5-methyl-2-trifluoromethyl-furan-3-sulfonic acid (4-(3,4-dimethoxy-phenyl)-4-{1,3-dioxo-4-[4-(1R)-(1-phenyl-ethyl)-piperazin-1-yl]-1,3-dihydro-isoindol-2-yl}-butyl)-amide] | 0.54 µM | 0.89 µM | > 10 µM |
| COc1ccc([C@@H](CCCNC(=N)N)N2C(=O)c3cccc(N4CCN([C@H](C)c5ccccc5)CC4)c3C2=O)cc1OC [Cpd 146, (R)-N-(4-(3,4-dimethoxy-phenyl)-4-{1,3-dioxo-4-[4-(1R)-(1-phenyl-ethyl)-piperazin-1-yl]-1,3-dihydro-isoindol-2-yl}-butyl)-guanidine] | 0.029 µM | 0.64 µM | 2.7 µM |
| COc1ccc(C(CCCNS(=O)(=O)c2cc(C)oc2C)N2C(=O)c3cccc(N4CCN([C@H](C)c5ccccc5)CC4)c3C2=O)cc1OC (stereo partly drawn) [Cpd 99, 2,5-dimethyl-furan-3-sulfonic acid (4-(3,4-dimethoxy-phenyl)-4-{1,3-dioxo-4-[4-(1R)-(1-phenyl-ethyl)-piperazin-1-yl]-1,3-dihydro-isoindol-2-yl}-butyl)-amide] | 0.17 µM | 0.62 µM | 2.7 µM |
| COc1ccc(C(CCCNS(=O)(=O)c2ccc(-c3ccon3)s2)N2C(=O)c3cccc(N4CCN([C@H](C)c5ccccc5)CC4)c3C2=O)cc1OC (stereo partly drawn) [Cpd 95, 5-isoxazol-3-yl-thiophene-2-sulfonic acid (4-(3,4-dimethoxy-phenyl)-4-{1,3-dioxo-4-[4-(1R)-(1-phenyl-ethyl)-piperazin-1-yl]-1,3-dihydro-isoindol-2-yl}-butyl)-amide] | 0.089 µM | 0.11 µM | 0.2 µM |
